The values that follow are results of earlier work, collected in patent US20100137333A1, “ANTIFUNGAL COMPOSITION AND METHODS FOR USING” (priority 2006, published 2010).

The conditions of the data set: in vivo.

As to “poly(vinylpyrrolidone/1-eicosene) [PVPE]”, the dermal toxicity entry was “no demonstrable dermal toxicity”.

Turning to “Poly(vinylpyrrolidone/1-hexadecene) [PVPH]”, the dermal toxicity entry is recorded as “no demonstrable dermal toxicity”.
